# Source: patent publication US12157730B2, “Heteroaryl derivative, method for producing same, and pharmaceutical composition comprising same as effective component” (VORONOI INC., priority 2019, dated 2024)
# Molecular target: T1, Ba/F3 cell EGFR Exon20 ins NPH (Homo sapiens, UniProt P00533, INS773NPH)
# T1 construct: expressed in transfected cells; host or cells: Ba/F3
# Test: Ba/F3 cell proliferation suppression, EGFR Exon20 ins NPH
# Type: cell-based
# Details: GI50 class; Ba/F3 cell line with NPH inserted at Exon20 of EGFR; 72 hours
# Method in brief: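 Growth suppression determined as GI50 following 72 h exposure across 12 concentrations up to 50 um, with viability by luminescent ATP assay (CellTiter-Glo).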
row,Ba/F3 (NPH) Activity,Compound
1,A (GI50 < 50 nM),"C=CC(=O)Nc1cc(Nc2cc(N3OCC[C@@H]3c3cccc(Cl)c3)ncn2)c(OC)cc1N1CCC(N2CCN(C3CCC3)CC2)CC1 [Example 185, N-(5-((6-((R)-3-(3-chlorophenyl)isoxazolidine-2-yl)pyrimidine-4-yl)amino)-2-(4-(4-cyclobutylpiperazine-1-yl)piperidine-1-yl)-4-methoxyphenyl) acrylamide]"
2,A (GI50 < 50 nM),"C=CC(=O)Nc1cc(Nc2cc(N3OCC[C@@H]3c3ccccc3)ncn2)c(OC)cc1N1C[C@H]2C[C@@H]1CO2 [Example 33, N-(2-((1R,4R)-2-oxa-5-azabicyclo [2.2.1]heptane-5-yl)-4-methoxy-5-((6((R)-3-phenylisoxazolidine-2-yl)pyrimidine-4-yl)amino)phenyl) acrylamide]"
3,A (GI50 < 50 nM),"C=CC(=O)Nc1cc(Nc2cc(N3OCC[C@@H]3Cc3ccccc3)ncn2)c(OC)cc1N1CCN(C)CC1 [compound 945, N-(5-((6-((S)-3-benzylisoxazolidine-2-yl)pyrimidine-4-yl)amino)-4-methoxy-2-(4-methylpiperazine-1-yl)phenyl)acrylamide]"
4,A (GI50 < 50 nM),"C=CC(=O)Nc1cc(Nc2cc(N3OCC[C@@H]3c3ccc(F)c(F)c3F)ncn2)c(OC)cc1N1CCC(N2C[C@@H]3C[C@H]2CO3)CC1 [compound 574, N-(2-(4-((1S,4S)-2-oxa-5-azabicyclo [2.2.1]heptane-5-yl)piperidine-1-yl)-4-methoxy-5-((6-((R)-3-(2,3,4-trifluorophenyl)isoxazolidine-2-yl)pyrimidine-4-yl)amino)phenyl)acrylamide]"
5,A (GI50 < 50 nM),"C=CC(=O)Nc1cc(Nc2cc(N3OCC[C@@H]3c3ccc(Cl)c(Cl)c3F)ncn2)c(OC)cc1N1CCC(N2CCN(C3CC3)CC2)CC1 [Example 60, N-(2-(4-(4-cyclopropylpiperazine-1-yl)piperidine-1-yl)-5-((6-((R)-3-(3,4-dichloro-2-fluorophenyl)isoxazolidine-2-yl)pyrimidine-4-yl)amino)-4-methoxyphenyl) acrylamide;]"
6,A (GI50 < 50 nM),"C=CCN1CCN(C2CCN(c3cc(OC)c(Nc4cc(N5OCC[C@@H]5c5cc(F)cc(F)c5)ncn4)cc3NC(=O)C=C)CC2)CC1 [Example 87, N-(2-(4-(4-allylpiperazine-1-yl)piperidine-1-yl)-5-((6-((R)-3-(3,5-difluorophenyl)isoxazolidine-2-yl)pyrimidine-4-yl)amino)-4-methoxyphenyl) acrylamide]"
7,A (GI50 < 50 nM),"C=CC(=O)Nc1cc(Nc2cc(N3OCC[C@@H]3c3ccc(F)cc3F)ncn2)c(OC)cc1N1CCC(N2CCC(N3CCN(C)CC3)CC2)CC1 [compound 477, N-(5-((6-((R)-3-(2,4-difluorophenyl)isoxazolidine-2-yl)pyrimidine-4-yl)amino)-4-methoxy-2-(4-(4-methylpiperazine-1-yl)-[1,4'-bipiperidine]-1'-yl)phenyl)acrylamide]"
8,C (500 nM ≤ GI50 < 5000 nM),"C=CC(=O)Nc1cc(Nc2cc(N3OCC[C@@H]3c3ccc(F)c(F)c3F)ncn2)c(OC)cc1N1CC[C@H](N2CCOCC2)C1 [compound 624, N-(4-methoxy-2-((S)-3-morpholinopyrolidine-1-yl)-5-((6-((R)-3-(2,3,4-trifluorophenyl)isoxazolidine-2-yl)pyrimidine-4-yl)amino)phenyl)acrylamide]"
9,A (GI50 < 50 nM),"C=CC(=O)Nc1cc(Nc2cc(N3OCC[C@@H]3c3ccc(F)cc3)ncn2)c(OC)cc1N1CCC(N2CCN(C3COC3)CC2)CC1 [Example 85, N-(5-((6-((R)-3-(4-fluorophenyl)isoxazolidine-2-yl)pyrimidine-4-yl)amino)-4-methoxy-2-(4-(4-(oxetane-3-yl)piperazine-1-yl)piperidine-1-yl)phenyl) acrylamide]"
10,A (GI50 < 50 nM),"C=CC(=O)Nc1cc(Nc2cc(N3OCC[C@@H]3c3cccc(Cl)c3F)ncn2)c(OC)cc1N1CCC(N2CCN(C3CCCC3)CC2)CC1 [Example 101, N-(5-((6-((R)-3-(3-chloro-2-fluorophenyl)isoxazolidine-2-yl)pyrimidine-4-yl)amino)-2-(4-(4-cyclopentylpiperazine-1-yl)piperidine-1-yl)-4-methoxyphenyl) acrylamide]"

# The remaining lines, values behind:
row,Compound,Ba/F3 (NPH) Activity
1,"C=CC(=O)Nc1cc(Nc2cc(N3OCC[C@@H]3c3ccc(F)c(Cl)c3F)ncn2)c(OC)cc1N1CCC(N2CCN(C(C)=O)CC2)CC1 [compound 636, N-(2-(4-(4-acetylpiperazine-1-yl)piperidine-1-yl)-5-((6-((R)-3-(3-chloro-2,4-difluorophenyl)isoxazolidine-2-yl)pyrimidine-4-yl)amino)-4-methoxyphenyl) acrylamide]",A (GI50 < 50 nM)
2,"C=CC(=O)Nc1cc(Nc2cc(N3OCC[C@@H]3c3cc(F)cc(Cl)c3)ncn2)c(OC)cc1N1CCC(N2C[C@@H]3C[C@H]2CO3)CC1 [compound 592, N-(2-(4-((1S,4S)-2-oxa-5-azabicyclo[2.2.1]heptane-5-yl)piperidine-1-yl)-5-((6-((R)-3-(3-chloro-5-fluorophenyl)isoxazolidine-2-yl)pyrimidine-4-yl)amino)-4-methoxyphenyl) acrylamide]",A (GI50 < 50 nM)
3,"C=CC(=O)Nc1cc(Nc2cc(N3OCC[C@@H]3c3ccc(F)c(F)c3)ncn2)c(OC)cc1N1CCN(CC)CC1 [compound 460, N-(5-((6-((R)-3-(3,4-difluorophenyl)isoxazolidine-2-yl)pyrimidine-4-yl)amino)-2-(4-ethylpiperazine-1-yl)-4-methoxyphenyl) acrylamide]",A (GI50 < 50 nM)
4,"C=CC(=O)Nc1cc(Nc2cc(N3OCC[C@@H]3c3cccc(Cl)c3Cl)ncn2)c(OC)cc1N1CCC(N2CCN(CC3CC3)CC2)CC1 [Example 204, N-(2-(4-(4-(cyclopropylmethyl)piperazine-1-yl)piperidine-1-yl)-5-((6-((R)-3-(2,3-dichlorophenyl)isoxazolidine-2-yl)pyrimidine-4-yl)amino)-4-methoxyphenyl) acrylamide]",A (GI50 < 50 nM)
5,"C=CC(=O)Nc1cc(Nc2cc(N3OCC[C@@H]3c3ccc(Cl)cc3)ncn2)c(OC)cc1N1CCN(CC)CC1 [Example 255, N-(5-((6-((R)-3-(4-chlorophenyl)isoxazolidine-2-yl)pyrimidine-4-yl)amino)-2-(4-ethylpiperazine-1-yl)-4-methoxyphenyl) acrylamide]",A (GI50 < 50 nM)
6,"C=CC(=O)Nc1cc(Nc2cc(N3OCC[C@@H]3c3cccc(Cl)c3)ncn2)c(OC)cc1N1CCC(N2CCN(C(C)=O)CC2)CC1 [compound 471, N-(2-(4-(4-acetylpiperazine-1-yl)piperidine-1-yl)-5-((6-((R)-3-(3-chlorophenyl)isoxazolidine-2-yl)pyrimidine-4-yl)amino)-4-methoxyphenyl) acrylamide]",A (GI50 < 50 nM)
7,"C=CC(=O)Nc1cc(Nc2cc(N3OCC[C@@H]3c3ccc(F)c(Cl)c3)ncn2)c(OC)cc1N1CCC(N2CCC(N(C)C)CC2)CC1 [compound 768, N-(5-((6-((R)-3-(3-chloro-4-fluorophenyl)isoxazolidine-2-yl)pyrimidine-4-yl)amino)-2-(4-(dimethylamino)-[1,4'-bipiperidine]-1'-yl)-4-methoxyphenyl) acrylamide]",A (GI50 < 50 nM)
8,"C=CC(=O)Nc1cc(Nc2cc(N3OCC[C@@H]3c3cccc(F)c3)ncn2)c(OC)cc1N1CCC(N2CCN(CC)CC2)CC1 [Example 248, N-(2-(4-(4-ethylpiperazine-1-yl)piperidine-1-yl)-5-((6-((R)-3-(3-fluorophenyl)isoxazolidine-2-yl)pyrimidine-4-yl)amino)-4-methoxyphenyl) acrylamide]",A (GI50 < 50 nM)
9,"C=CC(=O)Nc1cc(Nc2cc(N3OCC[C@@H]3c3ccccc3)ncn2)c(OC)cc1N1CCC(N2C[C@H]3C[C@@H]2CO3)CC1 [Example 53, N-(2-(4-((1R,4R)-2-oxa-5-azabicyclo[2.2.1]heptane-5-yl)piperidine-1-yl)-4-methoxy-5-((6-((R)-3-phenylisoxazolidine-2-yl)pyrimidine-4-yl)amino)phenyl) acrylamide]",A (GI50 < 50 nM)
10,"C=CC(=O)Nc1cc(Nc2cc(N3OCC[C@@H]3Cc3cccc(Cl)c3Cl)ncn2)c(OC)cc1N1CCC(N2CCO[C@@H](C)C2)CC1 [compound 1013, N-(5-((6-((S)-3-(2,3-dichlorobenzyl)isoxazolidine-2-yl)pyrimidine-4-yl)amino)-4-methoxy-2-(4-((S)-2-methylmorpholino)piperidine-1-yl)phenyl) acrylamide]",A (GI50 < 50 nM)
11,"N-(2-(4-(4- (cyclopropylmethyl) piperazine-1-yl) piperidine-1-yl)-5-((6- ((S)-3-(2,6)- difluorophenyl) isoxazolidine-2-yl) pyrimidine-4-yl)amino)- 4-methoxyphenyl) acrylamide [Example 95]",C (500 nM ≤ GI50 < 5000 nM)
12,"C=CC(=O)Nc1cc(Nc2cc(N3OCC[C@@H]3Cc3ccccc3)ncn2)c(OC)cc1N1CCN(C2CCCC2)CC1 [compound 972, N-(5-((6-((S)-3-benzylisoxazolidine-2-yl)pyrimidine-4-yl)amino)-2-(4-cyclopentylpiperazine-1-yl)-4-methoxyphenyl) acrylamide]",A (GI50 < 50 nM)
13,"C=CC(=O)Nc1cc(Nc2cc(N3OCC[C@@H]3c3cccc(F)c3)ncn2)c(OC)cc1N1CCC(N2C[C@@H]3C[C@H]2CN3C)CC1 [compound 837, N-(5-((6-((R)-3-(3-fluorophenyl)isoxazolidine-2-yl)pyrimidine-4-yl)amino)-4-methoxy-2-(4-((1S, 4S)-5-methyl-2,5-diazabicyclo[2.2.1]heptane-2-yl)piperidine-1-yl)phenyl)acrylamide]",A (GI50 < 50 nM)
